# Assays:
# [1] = tested on: G12 moAb; experiment: Indirect ELISA of C-LYTAG-peptide fusions (E. coli extracts) with moAb G12; assay type: binding; settings: indirect ELISA of bacterial extracts containing the fusion peptides
# From the text: (§1) To determine the epitope recognized by the G12 and A1 moAb within the 33-mer peptide, fusions of the C-LYTAG coding sequence of the pALEXb plasmid (Biomedal S.L., Sevilla, Spain) were constructed with coding sequences of hepta- and octapeptides comprising the complete sequence of the 33-mer peptide (Figure 3A). The resulting plasmids were introduced by transformation into the REG1 strain of Escherichia coli, allowing for over-expression of the encoded fusion proteins upon induction (Biomedal S.L., Sevilla, Spain). The over-expressed bacterial extracts were analyzed by indirect ELISA using the anti-33-mer A1 and G12 moAbs. Similarly, the anti-C-LYTAG 6B5L1 moAb (Biomedal, S.L., Sevilla, Spain) was used to establish that the designed protein was expressed intact in all cases. […]
# (§2) A Maxisorp microtiter plate (Nunc, Roskilde, Denmark) was coated overnight at 4°C with 100 µL/well of the appropriate antigen (C-LYTAG-33-mer protein, gliadin, hordein, secalin, avenin, oryzein, zein or soluble protein extracts containing peptide fusions) serially diluted with 0.1 M of Na2CO3-NaHCO3 (pH 9.6). […] Absorbance at 450 nm was measured in the microplate reader UVM340 (Asys Hitech GmbH, Eugendorf, Austria).
# [2] = tested on: A1 moAb; experiment: Indirect ELISA of C-LYTAG-peptide fusions (E. coli extracts) with moAb A1; assay type: binding; settings: indirect ELISA of bacterial extracts containing the fusion peptides
# From the text: as §1, §2
Substance,signal with G12 moAb [1],signal with A1 moAb [2]
"PQPQLPY [Pro63-Tyr69, C-LYTAG fusion peptide PQPQLPY expressed in E. coli]",positive signal,
"QLPYPQP [Gln66-Pro72, C-LYTAG fusion peptide QLPYPQP expressed in E. coli]",,positive signal
"QPQLPYP [Gln64-Pro70, C-LYTAG fusion peptide QPQLPYP expressed in E. coli]",positive signal,

# From PMC2386552, “Toward the Assessment of Food Toxicity for Celiac Patients: Characterization of Monoclonal Antibodies to a Main Immunogenic Gluten Peptide” (PLoS ONE, 2008)
